Data published in patent US12564580B2, “Mitochondria-targeted isoketal/isolevuglandin scavengers and uses thereof” (Vanderbilt University, priority 2020, dated 2026).

Key:
Water solubility = format: physicochemical
Text: Mito2HOBA is a water-soluble compound which can be supplied in the media and provided to animals in the drinking water.

[1] = system: human aortic endothelial cells (HAEC); assay: Mitochondrial superoxide in human aortic endothelial cells stimulated with angiotensin II plus TNFα (mitoSOX HPLC); format: cell-based; conditions: 50 nM, angiotensin II plus TNFα for 4-hours
Description: FIGS. 9A and B show the effect of mito2HOBA on mitochondrial superoxide and cardiolipin oxidation in human aortic endothelial cells induced by angiotensin II plus TNFα. (A) Mitochondrial superoxide was measured by HPLC analysis of mitoSOX-superoxide specific product, mito-2-hydroxyethidium (Mito-2OH-Et+). […] (B) Cardiolipin oxidation induced by Angiotensin II+TNFα measured my LC/MS. […] Data are mean±SEM. *P<0.01 vs Control, **P<0.01 vs Angiotensin II+TNFα (n=4).
Human aortic endothelial cells (HAEC) were purchased from Lonza (Chicago, IL) and cultured in EGM-2 medium supplemented with 2% FBS but without antibiotics. On the day before the study, the FBS concentration was reduced to 1%.
We tested if mito2HOBA reduces mitochondrial oxidative stress in human aortic endothelial cells (HAEC) stimulated with angiotensin II plus TNFα for 4-hours (FIG. 9). Indeed, supplementation of HAEC with mito2HOBA (50 nM) reduced mitochondrial superoxide production stimulated by TNF[…] and Ang II as measured by accumulation of specific superoxide-MitoSOX product, 2-OH-Mito-Ethidium.

renal ATP = assay: ATP levels in kidney tissue of angiotensin II-infused mice; format: in vivo, mouse; conditions: Ang II plus mito2HOBA
Description: FIGS. 13A-B show mito2HOBA reduces mPTP opening and prevents mitochondrial dysfunc¬tion. C57B1/6J mice were infused with Ang II ([…]) and mito2HOBA in the drinking water (0.1 g/L). Following 14 days of Ang II infusion the animals were sacrificed and kidneys were isolated for mitochondrial studies. Addition of CaCl2 to mitochondria above Ca2+ retention capacity led to mPTP opening and mitochondria swelling. 71 Mitochondria isolated from Ang II-infused mice had significant reduction in Ca2+ capacity due to increased mPTP opening and CypD inhibitor Cyclosporine A (CsA) rescued Ca2+ retention capacity (A). Respiratory control ratio (State 3/State 4) was measured in isolated kidney mitochondria with glutamate and malate (B). Control level is 100%. (C) Renal ATP was measured in freshly isolated tissue by luciferase-based luminescent assay. 72 Results are mean±SEM. *P<0.01 vs Sham, **P<0.01 vs Angiotensin II (n=5).
ATP concentration in the kidney tissue was measured by luminescent ATP detection assay kit (Abcam; Cat #ab113849). Luminescence signals were read using a Biotek Synergy H1 plate reader. Luminescence units were calculated as μmol/mg protein based on the ATP calibration curve and protein concentration measured by the Bradford method.

kidney mitochondria = assay: Respiration of kidney mitochondria isolated from mito2HOBA and LPS treated mice; format: in vivo, mouse
Description: To study the mitochondrial function, the combination of glutamate and malate (GM) or succinate was used as substrates. Since glutamate can be converted via transamination to α-ketoglutarate and further to succinate, the present inventors used complex II inhibitor malonate to define specific complex I respiration. The basal respiration (1) was measured in mitochondria supplemented with respiratory substrates. Then ADP was added to measure the coupled respiration (2). The proton leak (3) was determined after addition of complex V inhibitor oligomycin A. The uncoupled respiration (4) was measured after supplementation with CCCP. Finally, antimycin A plus rotenone were added to assess non-mitochondrial respiration (5) as described previously [32].
In order to define specific alterations in the mitochondrial respiration in LPS model of sepsis and test the potential protection by mito2HOBA the present inventors adopted the Seahorse protocol for mitochondrial studies in the presence of mitochondrial substrates Glutamate+Malate (GM) or succinate. To define the specific role of complex I mediated respiration the present inventors performed measurements in the presence of complex II inhibitor malonate (5 mM). The present inventors measured basal respiration in the presence of mitochondria plus substrates, coupled respiration after addition of ADP (2 mM), proton leak following addition of oligomycin A (2.5 μM) uncoupled respiration after supplementation of CCCP (1 μM) and non-mitochondrial respiration with mixture of antimycin A and rotenone (1 μM) Mitochondrial studies where independently verified in two labs using Oroboros O2k high-resolution respirometry and Fluorescence Lifetime Micro Oxygen Monitoring System (Instech Laboratories, Inc). Kidney mitochondria were isolated from control sham mice, LPS-injected mice (25 μg/g, 16 hours post-injection), mito2HOBA supplemented mice (0.1 g/Liter drinking water, 4 days), or mito2HOBA plus LPS (0.1 g/Liter mito2HOBA for 3 days plus LPS injection).

mouse aortic rings = assay: Vasodilatation study of aortic rings (endothelial-dependent relaxation); format: in vivo; conditions: Ang II plus mito2HOBA
Description: (§1) FIGS. 12A-D show the effect of mito2HOBA supplementation on mitochondrial superoxide (A), vascular superoxide (B), endothelial nitric oxide (C) and endothelial-dependent relaxation (D) in angiotensin II-infused mice. Mitochondrial and vascular O2⋅ was measured by mitochondria-targeted superoxide probe mitoSOX (1 μM) or untargeted superoxide probe DHE (50 μM) using HPLC.46 Endothelial nitric oxide was analyzed by NO spin trap Fe(DETC)2 and ESR.47 C57B1/6J mice were infused with Ang II and mito2HOBA was provided in the drinking water (0.1 g/L). […] Results are mean±SEM. *P<0.01 vs Sham, **P<0.01 vs Ang II (n=6).
Isometric tension studies were performed on 2 mm mouse aortic rings dissected free of perivascular fat from C57B/6J mice. Studies were performed in a horizontal wire myograph (DMT, Aarhus, Denmark, models 610 M and 620 M) containing physiological salt solution with the composition of 130 mM NaCl, 4.7 mM KCl 1.2 mM MgSO4, 1.2 mM KH2PO4, 15 mM NaHCO3, 5.5 mM glucose, and 1.6 mM CaCl2. The isometric tone of each vessel was recorded using LabChart Pro v7.3.7 (AD Instruments, Australia). […] Once the vessels reach a steady state contraction, increasing concentrations of acetylcholine were administered, and the response to each concentration of drug was recorded.

endothelial nitric oxide = assay: Aortic nitric oxide by ESR and Fe(DETC)2 in angiotensin II-infused mice; format: in vivo, mouse; conditions: Ang II plus mito2HOBA
Description: as §1
Nitric oxide production in aortas was quantified by ESR and colloid Fe(DETC)2 as we have described previously. All ESR samples were placed in quartz Dewar (Corning, New York, NY) filled with liquid nitrogen. ESR spectra were recorded using an EMX ESR spectrometer (Bruker Biospin Corp., Billerica, MA) and a super high Q microwave cavity. The ESR settings were as follows: field sweep, 160 Gauss; microwave frequency, 9.42 GHz; microwave power, 10 milliwatts; modulation amplitude, 3 Gauss; scan time, […]; time constant, 5.2 sec; and receiver gain, 60 dB (n=4 scans).

[2] = LPS 25 μg/g plus mito2HOBA 0.1 g/L
[3] = mito2HOBA alone, 0.1 g/L drinking water, 4 days

## NCc1ccc(OCCCC[P+](c2ccccc2)(c2ccccc2)c2ccccc2)cc1O [mito2HOBA]
Water solubility
  water solubility: water-soluble
[1]
  mitochondrial superoxide production: reduced
Renal ATP
  decrease in renal ATP levels: prevented
Kidney mitochondria; [2]
  LPS-induced impairment of GM-mediated respiration: significantly protected
  LPS-induced impairment of complex I-specific oxygen consumption in the presence of GM+malonate: significantly protected
  mitochondrial protein leak: did not affect
  succinate mediated respiration: did not affect
Kidney mitochondria; [3]
  complex I-specific oxygen consumption in the presence of GM+malonate: improved
  succinate-driven respiration: slightly reduced
Mouse aortic rings
  endothelial-dependent relaxation: preserved
Endothelial nitric oxide
  endothelial nitric oxide: completely prevented the decline
